ChEMBL document CHEMBL1201862, “PubChem BioAssay data set” (2004)
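96-well plates; 48 h exposure; 5 concentrations. Endpoints by linear interpolation between flanking doses. Not reached: highest tested concentration assigned. At the GI50, growth is halved.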 Calls of active or inactive are those of the source. Cut-off read from the data, not from the text of the source: active = GI50 up to about 1.1 µM and inactive = higher.

What was measured:
Assay in all cases: NCI-60 cell line screen, 48 h
NCI-H23 = test system: NCI-H23
LOX IMVI = test system: LOX IMVI
SW-620 = test system: SW-620
U-251 = test system: U-251
NCI-H460 = test system: NCI-H460
NCI-H522 = test system: NCI-H522
CCRF-CEM = test system: CCRF-CEM
UACC-62 = test system: UACC-62
Hs-578T = test system: Hs-578T
786-0 = test system: 786-0
UO-31 = test system: UO-31
HOP-62 = test system: HOP-62
IGROV-1 = test system: IGROV-1
SK-MEL-2 = test system: SK-MEL-2
OVCAR-3 = test system: OVCAR-3
NCI-H226 = test system: NCI-H226
HOP-92 = test system: HOP-92
TK-10 = test system: TK-10
SN12C = test system: SN12C
MDA-MB-435 = test system: MDA-MB-435

Row | Structure (SMILES) | GI50 (NCI-H23) | GI50 (LOX IMVI) | GI50 (SW-620) | GI50 (U-251) | GI50 (NCI-H460) | GI50 (NCI-H522) | GI50 (CCRF-CEM) | GI50 (UACC-62) | GI50 (Hs-578T) | GI50 (786-0) | GI50 (UO-31) | GI50 (HOP-62) | GI50 (IGROV-1) | GI50 (SK-MEL-2) | GI50 (OVCAR-3) | GI50 (NCI-H226) | GI50 (HOP-92) | GI50 (TK-10) | GI50 (SN12C) | GI50 (MDA-MB-435)
1 | Oc1cc(-c2ccccc2Cl)nc2cc3c(cc12)OCO3 | 0.122 µM (active) | 0.0541 µM (active) | 0.0698 µM (active) | 0.0736 µM (active) | 0.0719 µM (active) | 0.0653 µM (active) | 0.0422 µM (active) | 0.0574 µM (active) | 0.44 µM (active) | 0.32 µM (active) | 0.224 µM (active) | 0.132 µM (active) | 0.173 µM (active) | 0.0719 µM (active) | 0.0608 µM (active) | 0.13 µM (active) | 0.102 µM (active) | 0.731 µM (active) | 0.261 µM (active) | 0.0146 µM (active)
2 | CCN(CC)CCN1C=CC(C)C(C(=O)O)C1C(N)=O (stereo not given) | > 100 µM (inactive) | > 100 µM (inactive) | > 100 µM (inactive) | > 100 µM (inactive) | > 100 µM (inactive) | > 100 µM (inactive) | > 100 µM (inactive) | > 100 µM (inactive) | > 100 µM (inactive) | > 100 µM (inactive) | > 100 µM (inactive) | > 100 µM (inactive) | > 100 µM (inactive) | > 100 µM (inactive) | > 100 µM (inactive) | > 100 µM (inactive) | > 100 µM (inactive) | > 100 µM (inactive) | > 100 µM (inactive) | > 100 µM (inactive)
3 | NC(=S)N/N=C(\Cc1nc2ccc(Cl)cc2nc1O)C(=O)Nc1ccc(Cl)cc1 | > 100 µM (inactive) | > 100 µM (inactive) | > 100 µM (inactive) | > 100 µM (inactive) | > 100 µM (inactive) | > 100 µM (inactive) | > 100 µM (inactive) | > 100 µM (inactive) | > 100 µM (inactive) | > 100 µM (inactive) | 40 µM (inactive) | > 100 µM (inactive) | > 100 µM (inactive) | > 100 µM (inactive) | > 100 µM (inactive) | 96.2 µM (inactive) | 40.3 µM (inactive) | > 100 µM (inactive) | > 100 µM (inactive) | > 100 µM (inactive)
4 | CCc1nc(N)c2nc(-c3cccs3)oc2n1 | > 100 µM (inactive) | 87.7 µM (inactive) | > 100 µM (inactive) | > 100 µM (inactive) | 24.3 µM (inactive) | > 100 µM (inactive) | 77.1 µM (inactive) | > 100 µM (inactive) | 45.3 µM (inactive) | > 100 µM (inactive) | 65.6 µM (inactive) | > 100 µM (inactive) | 69.7 µM (inactive) | > 100 µM (inactive) | > 100 µM (inactive) | > 100 µM (inactive) | > 100 µM (inactive) | > 100 µM (inactive) | > 100 µM (inactive) | > 100 µM (inactive)
5 | CC1=C2C(=O)OCC23C=COC3(C)O1 (stereo not given) | 39 µM (inactive) | 30.3 µM (inactive) | 26.2 µM (inactive) | 25.4 µM (inactive) | 48.4 µM (inactive) | 29.1 µM (inactive) | 33.5 µM (inactive) | 19.4 µM (inactive) | 50.4 µM (inactive) | 35.6 µM (inactive) | 30.8 µM (inactive) | 34.2 µM (inactive) | 32.7 µM (inactive) | 32.6 µM (inactive) | 33.4 µM (inactive) | 28.4 µM (inactive) | 45 µM (inactive) | 42 µM (inactive) | 37.7 µM (inactive) | 20.7 µM (inactive)
6 | N#CC(NNC(=O)c1ccccc1O)c1c(O)ccc2ccccc12 (stereo not given) | 4.65 µM (inactive) | 0.877 µM (active) | 4.3 µM (inactive) | 3.79 µM (inactive) | 2.99 µM (inactive) | 4.42 µM (inactive) | 0.962 µM (active) | 2.61 µM (inactive) | 17.3 µM (inactive) | 4.56 µM (inactive) | 2.92 µM (inactive) | 3.33 µM (inactive) | 4.4 µM (inactive) | 3.72 µM (inactive) | 2.54 µM (inactive) | 3.71 µM (inactive) | 5.71 µM (inactive) | 4.7 µM (inactive) | 7.64 µM (inactive) | 8.53 µM (inactive)
7 | C[C@H](CCC1=NCCN1)[C@H]1CC[C@H]2[C@@H]3CC[C@@H]4C[C@H](O)CC[C@]4(C)[C@H]3C[C@H](O)[C@]12C | 14.1 µM (inactive) | 11.2 µM (inactive) | 19.9 µM (inactive) | 8.11 µM (inactive) | 13.9 µM (inactive) | 5.75 µM (inactive) | 10.7 µM (inactive) | 13.5 µM (inactive) | 11.4 µM (inactive) | 16.3 µM (inactive) | 18.6 µM (inactive) | 15.5 µM (inactive) | 7.38 µM (inactive) | 13.8 µM (inactive) | 12.1 µM (inactive) | 14.3 µM (inactive) | 12.2 µM (inactive) | 14 µM (inactive) | 16.9 µM (inactive) | 14.5 µM (inactive)
8 | CC(=O)Nc1[nH]c(C#N)nc1C#N | > 100 µM (inactive) | > 100 µM (inactive) | > 100 µM (inactive) | > 100 µM (inactive) | > 100 µM (inactive) | > 100 µM (inactive) | > 100 µM (inactive) | > 100 µM (inactive) | > 100 µM (inactive) | > 100 µM (inactive) | > 100 µM (inactive) | > 100 µM (inactive) | > 100 µM (inactive) | > 100 µM (inactive) | > 100 µM (inactive) | > 100 µM (inactive) | > 100 µM (inactive) | > 100 µM (inactive) | > 100 µM (inactive) | > 100 µM (inactive)
9 | CCOP(=O)(OCC)C(C)(CC)NC (stereo not given) | > 100 µM (inactive) | > 100 µM (inactive) | > 100 µM (inactive) | > 100 µM (inactive) | > 100 µM (inactive) | > 100 µM (inactive) | 0.935 µM (active) | > 100 µM (inactive) | > 100 µM (inactive) | > 100 µM (inactive) | > 100 µM (inactive) | > 100 µM (inactive) | > 100 µM (inactive) | > 100 µM (inactive) | > 100 µM (inactive) | > 100 µM (inactive) | > 100 µM (inactive) | > 100 µM (inactive) | > 100 µM (inactive) | > 100 µM (inactive)
10 | OC(c1ccc(-c2ccccc2)cc1)C(F)(F)c1nc2ccccc2o1 (stereo not given) | 39.9 µM (inactive) | > 95.3 µM (inactive) | > 100 µM (inactive) | 30.7 µM (inactive) | 37.5 µM (inactive) | 25 µM (inactive) | > 45 µM (inactive) | > 78 µM (inactive) | 20.9 µM (inactive) | 25.9 µM (inactive) | 55 µM (inactive) | 30.7 µM (inactive) | 34 µM (inactive) | > 100 µM (inactive) | 35.8 µM (inactive) | > 48.3 µM (inactive) | 29.9 µM (inactive) | 38.3 µM (inactive) | 50.5 µM (inactive) | > 86.9 µM (inactive)
11 | COc1c(-c2nc3ccc(N4CCN(C)CC4)cc3[nH]2)cc(OC)c2[nH]c(COC(C)=O)nc12 | 65.9 µM (inactive) | 30.8 µM (inactive) | 40.2 µM (inactive) | 48.3 µM (inactive) | 43.1 µM (inactive) | 48.9 µM (inactive) | 29.2 µM (inactive) | > 100 µM (inactive) | > 100 µM (inactive) | 36.6 µM (inactive) | 42.3 µM (inactive) | 67.1 µM (inactive) | > 100 µM (inactive) | 45.9 µM (inactive) | > 100 µM (inactive) | > 100 µM (inactive) | > 100 µM (inactive) | 71.4 µM (inactive) | 41.4 µM (inactive) | 37.8 µM (inactive)
12 | CC(=O)O[C@H]1C(=O)[C@@]2(C)[C@H]([C@H](OC(=O)c3ccccc3)[C@]3(O)C[C@H](OC(=O)[C@H](O)[C@@H](NC(=O)c4ccc(N(C)C)cc4)c4ccccc4)C(C)=C1C3(C)C)[C@]1(OC(C)=O)CO[C@@H]1C[C@@H]2O | 0.00849 µM (active) | < 0.005 µM (active) | < 0.005 µM (active) | < 0.005 µM (active) | < 0.005 µM (active) | < 0.005 µM (active) | < 0.005 µM (active) | < 0.005 µM (active) | < 0.005 µM (active) | < 0.005 µM (active) | 1.54 µM (inactive) | 0.0136 µM (active) | 0.00962 µM (active) | 0.05 µM (active) | < 0.005 µM (active) | 0.008 µM (active) | > 28.8 µM (inactive) | 0.0723 µM (active) | < 0.005 µM (active) | < 0.005 µM (active)
13 | Cc1ccc(S(=O)(=O)N/N=C2/CCC3(O)CC2(C)CCC2[C@H]3CC2(C)C)cc1 (stereo not given in full) | 37.3 µM (inactive) | 11.2 µM (inactive) | 27.9 µM (inactive) | 17.5 µM (inactive) | 22.8 µM (inactive) | 26.2 µM (inactive) | 12 µM (inactive) | 20.3 µM (inactive) | 35.5 µM (inactive) | 31.8 µM (inactive) | 25.7 µM (inactive) | 43 µM (inactive) | 23.5 µM (inactive) | 23.8 µM (inactive) | 40.2 µM (inactive) | 27.2 µM (inactive) | 29.2 µM (inactive) | 34.3 µM (inactive) | 33.3 µM (inactive) | 27.8 µM (inactive)
14 | CC(C)C[C@H](NC(=O)[C@H](Cc1cccc2ccccc12)NS(=O)(=O)c1cccc2cccnc12)B(O)O | < 0.0226 µM (active) | < 0.0118 µM (active) | < 0.0176 µM (active) | 0.0264 µM (active) | 0.0893 µM (active) | 0.0106 µM (active) | < 0.01 µM (active) | 0.0223 µM (active) | < 0.0199 µM (active) | 0.0222 µM (active) | 0.279 µM (active) | 0.0444 µM (active) | < 0.0208 µM (active) | < 0.0158 µM (active) | < 0.0111 µM (active) | 0.000208 µM (active) | 0.00726 µM (active) | < 0.0285 µM (active) | < 0.0122 µM (active) | < 0.01 µM (active)
